Results published in patent US20240261274A1, “TREATMENT OF MYC-DRIVEN CANCERS WITH GSPT1 DEGRADERS” (MONTE ROSA THERAPEUTICS, INC., priority 2021, published 2024).

System: Myc target genes
Experiment: RNAseq ssGSEA of Myc target genes in NCI-H1155 and NCI-H2023
Format: cell-based
Conditions: high N-Myc expressing cells, 0.1 μM and 1 μM
Experimental: A High N-Myc expressing NSCLC cell lines ([…]) and a low N-Myc expressing NSCLC cell lines (NCI-H2023) were treated with Compound 345 in culture. Cells were treated with increasing concentrations of the compound (0.0; 0.03; 0.3; 3 μM), cells were withdrawn from the culture at time points of 0, 2, and 6 hours, lysates were prepared, SDS-PAGE and immunoblotting was performed, and transfer membranes were probed for GSPT1, N-Myc, and Tubulin as a loading control (N-Myc was not probed in the NCI-2023 experiment). […] For the same cell lines, RNAseq followed by single sample gene set enrichment analysis (ssGSEA) was performed at six hours and 24 hours after treatment with Compound 345. […]
Transcriptomics experiment in NCI-H1155 and NCI-H2023 NSCLC lines: NCI-H1155 and NCI-H2023 were typically seeded in a 6 well plate (0.5×10^6 NCI-H1155 cells/mL; 0.3×10^6 NCI-H2023 cells/mL; 2 ml/well) and incubated overnight. […] Total RNA yields and quality were measured using the DeNovix DS-11 Spectrophotometer. […] Library yields were measured using a QuBit 4 fluorometer ([…], Q33238) and sizes were measured using a Tapestation 4150 (Agilent, G2992AA) and screentape (Agilent, 5067-5562). […] The modulation of Myctarget gene expression upon treatment with MRT-2359 was analyzed in RNAseq profiles of both Myc-driven (NCI-Hi 155) and non-Mycdriven (NCI-H2023) cell lines. […]

## O=C1CCC(N2Cc3ccc(COC(=O)Nc4cc(OC(F)(F)F)ccc4F)cc3C2=O)C(=O)N1 (centres unmarked) [Compound 345, (2-(2,6-dioxopiperidin-3-yl)-3-oxoisoindolin-5-yl)methyl(2-fluoro-5-(trifluoromethoxy)phenyl)carbamate]
24 hours
  ssGSEA score, Myc gene set: significant downregulation of the Myc gene set
Six hours
  ssGSEA score, Myc gene set: modest down regulation of the Myc gene set
